According to patent US8623899B2, “Bis-benzimidazole derivatives as hepatitis C virus inhibitors” (Janssen Research & Development Ireland, priority 2009, dated 2014):

Tested on: HCV type 1b replicon in Huh-7 luc/neo (Huh-Luc) cells
Experiment: HCV replicon assay (Huh-Luc, luciferase readout)
Type: cell-based
Conditions: Hepatitis C virus, Huh-7, 72 h, luciferase activity, incubation of three days, read-out: HCV-REP-HUH7LUC_EC50
Excerpt: The compounds of formula (I) were examined for inhibitory activity in the HCV replicon. This cellular assay is based on a bicistronic expression construct, as described by Lohmann et al. (1999) Science vol. 285 pp. 110-113 with modifications described by Krieger et al. (2001) Journal of Virology 75: 4614-4624, in a multi-target screening strategy.
In essence, the method was as follows:
The assay utilized the stably transfected cell line Huh-7 luc/neo (hereafter referred to as Huh-Luc). This cell line harbors an RNA encoding a bicistronic expression construct comprising the wild type NS3-NS5B regions of HCV type 1b translated from an Internal Ribosome Entry Site (IRES) from encephalomyocarditis virus (EMCV), preceded by a reporter portion (FfL-luciferase), and a selectable marker portion (neo^R, neomycine phosphotransferase). The construct is flanked by 5′ and 3′ NTRs (non-translated regions) from HCV type 1b. Continued culture of the replicon cells in the presence of G418 (neo^R) is dependent on the replication of the HCV RNA. The stably transfected replicon cells that express HCV RNA, which replicates autonomously and to high levels, encoding inter alia luciferase, were used for screening the antiviral compounds.
The replicon cells were plated in 384 well plates in the presence of the test and control compounds which were added in various concentrations. Following an incubation of three days, HCV replication was measured by assaying luciferase activity (using standard luciferase assay substrates and reagents and a Perkin Elmer ViewLux™ ultraHTS microplate imager). Replicon cells in the control cultures have high luciferase expression in the absence of any inhibitor. The inhibitory activity of the compound on luciferase activity was monitored on the Huh-Luc cells, enabling a dose-response curve for each test compound. EC50 values were then calculated, which represent the amount of compound required to decrease the level of detected luciferase activity by 50%, or more specifically, to reduce the ability of the genetically linked HCV replicon RNA to replicate.

`COC(=O)N[C@H](C(=O)N1CCC[C@H]1c1nc2ccc(-c3ccc(-c4ccc5nc([C@@H]6CCCN6C(=O)[C@@H](NC(=O)OC)C(C)(C)C)[nH]c5c4)cc3)cc2[nH]1)C(C)(C)C` [Compound 37] and `COC(=O)N[C@@H](CC(C)C)C(=O)N1CCC[C@H]1c1nc2ccc(-c3ccc(-c4ccc5nc([C@@H]6CCCN6C(=O)[C@H](CC(C)C)NC(=O)OC)[nH]c5c4)cc3)cc2[nH]1` [Compound 56] are within 1.5-fold of each other in EC50: 0.01 nM for the first, 0.012 nM for the second.

Going from `CC(C)(C)OC(=O)N[C@@H](C(=O)N1CCC[C@H]1c1nc2ccc(-c3ccc(-c4ccc5nc([C@@H]6CCCN6C(=O)[C@H](NC(=O)OC(C)(C)C)c6ccccc6)[nH]c5c4)cc3)cc2[nH]1)c1ccccc1` [Compound 38] to `COC(=O)N[C@@H](C(=O)N1CCCC1c1nc2ccc(-c3ccc(-c4ccc5nc([C@@H]6CCCN6C(=O)[C@H](NC(=O)OC)c6ccccc6)[nH]c5c4)cc3)cc2[nH]1)c1ccccc1` (stereo partly drawn) [Compound 39], the EC50 falls from 0.014 nM to 0.0067 nM (2.1-fold). The second is the more potent here.

`COC(=O)N[C@H](C(=O)N1CCC[C@H]1c1nc2cc(-c3ccc(-c4ccc5nc([C@@H]6CCCN6C(=O)[C@@H](NC(=O)OC)C6CC6)[nH]c5c4)cc3)ccc2[nH]1)C1CC1` [Compound 40] and `COCC[C@H](NC(=O)OC)C(=O)N1CCC[C@H]1c1nc2ccc(-c3ccc(-c4ccc5nc([C@@H]6CCCN6C(=O)[C@H](CCOC)NC(=O)OC)[nH]c5c4)cc3)cc2[nH]1` [Compound 51] are within 1.5-fold of each other in EC50: 0.014 nM for the first, 0.012 nM for the second.

Going from `CCOC(=O)N[C@H](C(=O)N1CCC[C@H]1c1nc2ccc(-c3ccc(-c4ccc5nc([C@@H]6CCCN6C(=O)[C@@H](NC(=O)OCC)C(C)C)[nH]c5c4)cc3)cc2[nH]1)C(C)C` [Compound 41] to `CCC(=O)N[C@H](C(=O)N1CCC[C@H]1c1nc2ccc(-c3ccc(-c4ccc5nc([C@@H]6CCCN6C(=O)[C@@H](NC(=O)CC)C(C)C)[nH]c5c4)cc3)cc2[nH]1)C(C)C` [Compound 53], the EC50 falls from 17 nM to 4 nM (4.2-fold). The second is the more potent here.

`CCN(C1CC1)[C@@H](C(=O)N1CCC[C@H]1c1nc2ccc(-c3ccc(-c4ccc5nc([C@@H]6CCCN6C(=O)[C@@H](c6ccccc6)N(CC)C6CC6)[nH]c5c4)cc3)cc2[nH]1)c1ccccc1` [Compound 42] and `O=C([C@@H](c1ccccc1)N1CCCC1)N1CCC[C@H]1c1nc2ccc(-c3ccc(-c4ccc5nc([C@@H]6CCCN6C(=O)[C@@H](c6ccccc6)N6CCCC6)[nH]c5c4)cc3)cc2[nH]1` [Compound 45] are within 1.5-fold of each other in EC50: 0.063 nM for the first, 0.051 nM for the second.

Compared with `O=C([C@@H](c1ccccc1)N1CCOCC1)N1CCC[C@H]1c1nc2ccc(-c3ccc(-c4ccc5nc([C@@H]6CCCN6C(=O)[C@@H](c6ccccc6)N6CCOCC6)[nH]c5c4)cc3)cc2[nH]1` [Compound 46], `O=C([C@H](O)c1ccccc1Cl)N1CCC[C@H]1c1nc2ccc(-c3ccc(-c4ccc5nc([C@@H]6CCCN6C(=O)[C@H](O)c6ccccc6Cl)[nH]c5c4)cc3)cc2[nH]1` [Compound 48] is 2-fold lower in EC50: 0.022 nM for the first, 0.011 nM for the second. The second is the more potent here.

First: O=C([C@H](O)c1cccc(Cl)c1)N1CCC[C@H]1c1nc2ccc(-c3ccc(-c4ccc5nc([C@@H]6CCCN6C(=O)[C@H](O)c6cccc(Cl)c6)[nH]c5c4)cc3)cc2[nH]1 [Compound 49]
Second: CC(C)OC(=O)N[C@H](C(=O)N1CCC[C@H]1c1nc2ccc(-c3ccc(-c4ccc5nc([C@@H]6CCCN6C(=O)[C@@H](NC(=O)OC(C)C)C(C)C)[nH]c5c4)cc3)cc2[nH]1)C(C)C [Compound 52]
The EC50 of the first is lower: 0.027 nM for the first, > 98 nM for the second.

`CC(C)[C@@H](C(=O)N1CCC[C@H]1c1nc2ccc(-c3ccc(-c4ccc5nc([C@@H]6CCCN6C(=O)[C@H](C(C)C)N6CCCNC6=O)[nH]c5c4)cc3)cc2[nH]1)N1CCCNC1=O` [Compound 54] was tested, and the EC50 was 0.065 nM.
